Assays:
[1] = system: male balb/c mice; test: Motility of the gastrointestinal tract in vivo (activated carbon transit); settings: intact 73.8 ± 3.7
Description: The effect of Compound I on the motility of the GIT was studied by a standard procedure (Li Y. Y., Li Y. N., Ni J. B., Chen C. J., Lv S., Chai S. Y., Wu R. H., Yüce B., Storr M. Involvement of cannabinoid-1 and cannabinoid-2 receptors in septic ileus//Neurogastroenterol Motil. 2010. V. 22. P. 350-388). The study was carried out on male balb/c mice, the individual weight of which deviates from the mean value within the sex of no more than ±20%. The animals were given the intragastric administration of a solution of activated carbon (50 mg/ml, in 10 ml/kg) and the rate (in minutes) of the movement of the activated carbon on the intestine of animals was evaluated. Compounds I was administered once intragastrically 1 hour prior to administration of activated carbon. As the comparative preparations, hyoscin butyl bromide (Buscopan) at a dose of 3 mg/kg, trimebutine (Trimedat) at a dose of 33 mg/kg, mebeverine (Duspatalin) at a dose of 30 mg/kg were used. The obtained data were checked using the Grubb's test for the presence of the largest or smallest abnormal observation (ejection) in the sample. Values determined “to be eliminated” in this test were not used for further assay. For all data, descriptive statistics was used: a mean value (M) and standard error of the mean value (m) were counted up. The normality of distribution of the values obtained in the course of the experiment was checked with the aid of the Kolmogorov-Smirnov test. In the case of normal distribution, Student's t-test (t-test) was used to evaluate the inter-group distinctions. In the case of the distribution that is other than the normal one for the comparison of several groups, the Kruskall-Wallis test (with Dann's post hoc test) was used. Distinctions were determined at 5% at a level of confidence.

[2] = system: female balb/c mice; test: Oxazolone-induced inflammatory bowel disease model; type: in vivo; settings: 10 mg/kg, 1, 25 and 49 hours after oxazolone, scored at 72 hours, control 2.00 ± 0.21
Description: The study of the activity of Compound I on the oxazolone-induced inflammatory bowel disease model (ulcerative Colitis and Crohn's disease model) was carried out by means of a standard procedure (Heller F., Fuss I. J., Nieuwenhuis E. E., Blumberg R. S., Strober W. Oxazolone colitis, a Th2 colitis model resembling ulcerative colitis, is mediated by IL-13-producing NK-T cells//Immunity. 2002. P. 629-638).
The study was carried out on female balb/c mice. A 3.5 F catheter was introduced into the large intestine to a depth of 3-4 cm. Then, 150 μl of 1% oxazolone solution in 50% ethanol was slowly introduced into the colon lumen, the catheter was slowly removed and the mouse was kept in a vertical position (upside down) for 60 seconds to avoid the introduced solution flowing-out. Experimental animals were returned to the cages and the animal was kept in the warm. Compound I was administered intragastrically, three times: 1 hour, 25 hours and 49 hours after the rectal administration of oxazolone. 72 hours later after the rectal administration of oxazolone, the macroscopic assessment of intestinal wall damage is carried out with the help of score scale: 0 points—no lesions, 1 point—hyperemia, no ulcers, 2 points—hyperemia and thickening of the intestinal wall, no ulcers, 3 points—one ulcer without thickening of the intestine wall, 4 points—2 or more of the site of ulceration or inflammation, 5 points—2 or more severe sites of ulcerations and inflammation, or one site of ulceration/inflammation affecting >1 cm in length of the intestine, 6-10 points—the lesion affects >2 cm in length of the intestine, the score increases by 1 point per each 1 cm that is damaged.
For all data, descriptive statistics is applied: the arithmetic mean (M) and the standard error of the mean (m) are counted up. The normality of distribution of the values obtained in the course of the experiment was checked with the aid of the Shapiro-Wilk test. […] Distinctions were determined at 5% at a level of confidence.

Compound: CCCC[N+]1(C)[C@@H]2C[C@@H](OC(=O)[C@H](CO)c3ccccc3)C[C@H]1[C@@H]1O[C@@H]12 (stereo partly shown) [Hyoscine butyl bromide, hyoscin butyl bromide, reference compound]
- The time of ejection of activated carbon ([1]; 3 mg/kg once intragastrically 1 hour prior to activated carbon): 87.6 ± 4.75 min

Compound: CCN(CCCCOC(=O)c1ccc(OC)c(OC)c1)C(C)Cc1ccc(OC)cc1 (stereo not shown) [Mebeverine, mebeverine, reference compound]
- The time of ejection of activated carbon ([1]; 30 mg/kg once intragastrically 1 hour prior to activated carbon): 114.5 ± 12.22 min

Compound: C[C@]12C=CC(=O)C=C1CC[C@@H]1[C@@H]2[C@@H](O)C[C@@]2(C)[C@H]1CC[C@]2(O)C(=O)CO [Prednisolone, reference compound]
- The degree of colon wall damage [2]: 1.40 ± 0.37 points

Compound: CCC(COC(=O)c1cc(OC)c(OC)c(OC)c1)(c1ccccc1)N(C)C (stereo not shown) [Trimebutine, trimebutine, reference compound]
- The time of ejection of activated carbon ([1]; 33 mg/kg once intragastrically 1 hour prior to activated carbon): 110.8 ± 6.52 min

Source: patent US11414377B2, “Modulator of metabotropic and ionotropic transmembrane receptors and use thereof” (IBD THERAPEUTICS LLC, priority 2018, dated 2022)
